Measurements reported in publication PMC3930709, “Selective Activation of hTRPV1 by N-Geranyl Cyclopropylcarboxamide, an Amiloride-Insensitive Salt Taste Enhancer” (PLoS ONE, 2014).

Legend:
αβγ hENaC = biological target: T1, αβγ hENaC (Homo sapiens, UniProt P37088+P51168+P51170); assay: Membrane potential assay (FMP dye) on αβγ hENaC-expressing cells; assay type: cell-based; details: relative to buffer alone, 0.01-10 µM
T1 construct: GFP; host or cells: HEK293T
T1 sequence (P37088 1-669): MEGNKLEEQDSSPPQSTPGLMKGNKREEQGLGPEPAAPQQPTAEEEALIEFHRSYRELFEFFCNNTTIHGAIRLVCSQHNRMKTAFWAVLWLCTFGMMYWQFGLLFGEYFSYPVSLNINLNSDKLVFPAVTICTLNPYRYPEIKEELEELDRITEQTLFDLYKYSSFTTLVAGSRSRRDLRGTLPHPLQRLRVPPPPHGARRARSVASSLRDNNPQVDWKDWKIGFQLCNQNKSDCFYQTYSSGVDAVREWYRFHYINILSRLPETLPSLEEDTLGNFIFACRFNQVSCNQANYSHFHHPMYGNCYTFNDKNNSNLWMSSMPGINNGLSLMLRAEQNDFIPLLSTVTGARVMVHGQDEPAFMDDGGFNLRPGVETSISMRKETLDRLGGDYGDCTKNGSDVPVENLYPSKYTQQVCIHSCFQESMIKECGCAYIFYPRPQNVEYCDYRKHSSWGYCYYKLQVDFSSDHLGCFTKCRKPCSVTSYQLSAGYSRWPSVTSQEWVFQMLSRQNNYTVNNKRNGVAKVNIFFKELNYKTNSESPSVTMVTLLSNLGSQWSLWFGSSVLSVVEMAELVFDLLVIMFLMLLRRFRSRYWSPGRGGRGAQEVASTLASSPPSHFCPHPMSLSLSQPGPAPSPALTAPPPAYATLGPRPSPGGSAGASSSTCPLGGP
T1 sequence (P51168 1-640): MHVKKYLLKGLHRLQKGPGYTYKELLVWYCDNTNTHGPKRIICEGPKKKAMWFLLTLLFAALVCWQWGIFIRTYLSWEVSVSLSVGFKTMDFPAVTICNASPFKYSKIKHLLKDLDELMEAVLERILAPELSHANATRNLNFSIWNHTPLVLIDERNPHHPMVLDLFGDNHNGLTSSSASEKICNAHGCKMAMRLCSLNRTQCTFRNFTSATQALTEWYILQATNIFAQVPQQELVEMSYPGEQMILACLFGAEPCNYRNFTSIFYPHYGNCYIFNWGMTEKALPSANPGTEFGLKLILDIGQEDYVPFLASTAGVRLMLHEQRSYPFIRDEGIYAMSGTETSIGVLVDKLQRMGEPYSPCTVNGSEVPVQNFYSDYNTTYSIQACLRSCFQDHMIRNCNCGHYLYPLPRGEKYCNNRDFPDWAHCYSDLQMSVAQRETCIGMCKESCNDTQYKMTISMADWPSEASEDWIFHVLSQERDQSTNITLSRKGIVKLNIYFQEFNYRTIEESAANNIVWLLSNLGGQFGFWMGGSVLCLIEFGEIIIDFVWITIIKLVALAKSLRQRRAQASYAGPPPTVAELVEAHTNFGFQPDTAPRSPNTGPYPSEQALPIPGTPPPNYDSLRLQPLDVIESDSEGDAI
T1 sequence (P51170 1-649): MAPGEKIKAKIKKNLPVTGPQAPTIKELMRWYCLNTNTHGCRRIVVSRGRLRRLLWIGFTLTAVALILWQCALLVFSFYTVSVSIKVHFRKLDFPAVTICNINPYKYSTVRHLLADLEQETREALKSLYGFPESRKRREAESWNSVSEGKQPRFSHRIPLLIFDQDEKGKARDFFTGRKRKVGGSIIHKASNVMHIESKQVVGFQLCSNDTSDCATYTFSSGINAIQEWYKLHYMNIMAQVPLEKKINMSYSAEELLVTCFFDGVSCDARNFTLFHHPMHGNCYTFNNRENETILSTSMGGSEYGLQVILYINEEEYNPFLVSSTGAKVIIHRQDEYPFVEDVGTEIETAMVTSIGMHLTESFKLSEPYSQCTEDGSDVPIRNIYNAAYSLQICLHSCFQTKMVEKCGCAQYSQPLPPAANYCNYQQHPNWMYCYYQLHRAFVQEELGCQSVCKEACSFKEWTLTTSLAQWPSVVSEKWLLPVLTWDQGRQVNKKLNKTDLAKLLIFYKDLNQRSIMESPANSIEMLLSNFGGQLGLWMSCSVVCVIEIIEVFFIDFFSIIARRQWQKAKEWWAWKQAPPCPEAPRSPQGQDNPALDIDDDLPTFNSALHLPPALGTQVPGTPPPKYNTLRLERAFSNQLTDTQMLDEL
Procedure: The α, β, and γ hENaC subunits were cloned from OriGene (Rockville, MD; GenBank accession number […] for SCNN1A, NM_000336 for SCNN1B and NM_001039 for SCNN1G). α, GFP-tagged β, and γ hENaC were cloned into a CMV promoter-based vector and expressed constitutively. The HEK293T cells were seeded onto a 35 mm dish and transfected with α, β, and γ hENaC expression plasmid using Lipofectamine 2000 (Invitrogen). Then, transfected cells were seeded onto 96-well black-wall plate for 18–26 h prior to their use in an experiment.
hENaC-expressing cells were characterized using FLIPER Membrane Potential (FMP) Assay Kit (Molecular Devices Corporation, Sunnyvale, CA, USA). In this assay, changes in the membrane potential were quantified via fluorescence change caused by FMP dye. The hENaC-expressing cells were washed with assay buffer (containing: 130 mM NaCl, 10 mM glucose, 5 mM KCl, 2 mM CaCl2, 1.2 mM MgCl2, and 10 mM HEPES, pH adjusted to 7.4 with NaOH) and subsequently, FMP blue-dye in assay buffer was loaded into the cells at room temperature for 30 min. After dye treatment, S3969 (0.03−10 µM), an ENaC agonist, S3969+Bz (ENaC antagonist, 0.01 µM), or NGCC (0.01−10 µM) was treated to hENaC-expressing cells. The plate was assayed in a FlexStation III plate reader (Molecular devices Corporation) by excitation at 530 nm and measuring the emission at 560 nm.

NaCl taste perception = system: NaCl taste perception; design: method as in PMID 23221408; details: NGCC 5 and 10 µM; cited from earlier work

In the case of `CC(C)=CCC/C(C)=C/CNC(=O)C1CC1` [NGCC, N-geranylcyclopropylcarboxamide], the “change in membrane potential in αβγ hENaC-expressing cells” value (αβγ hENaC) is listed as “no significant changes in membrane potential” and the “effect on NaCl taste in human sensory studies” value (NaCl taste perception) is listed as “significant enhancement in NaCl taste”.
